*1 amine or outer side, *2 acyl side, *3 side chain or, on linkers, in order; H or OH if unused. Where a SMILES comes first, the peptide text is derived from it. Side-chain parts run from the residue outwards. [ ]: non-standard residue; d: D form. The star is where a group is joined. γGlu = O=C(O)[C@H](CCC(=O)[*:2])N[*:1]; Stearoyl = CCCCCCCCCCCCCCCCCC(=O)*; Palmitoyl = CCCCCCCCCCCCCCCC(=O)*; Aib = CC(C)(N)C(=O)O
Assays:
Type in all cases: cell-based
Conditions in all cases: Table 7; cAMP formation
[1] = target: T1, human GLP-1 receptor (hGLP-1 R) (Homo sapiens, UniProt P43220); experiment: cAMP response of HEK-293 cells stably expressing human GLP-1 receptor (HTRF)
T1 construct: expressed in transfected cells
Description: (§1) cAMP content of cells was determined using a kit from Cisbio Corp. (cat. no. 62AM4PEC) based on HTRF (Homogenous Time Resolved Fluorescence). For preparation, cells were split into T175 culture flasks and grown overnight to near confluency in medium (DMEM/10% FBS). Medium was then removed and cells washed with PBS lacking calcium and magnesium, followed by proteinase treatment with accutase (Sigma-Aldrich cat. no. A6964). Detached cells were washed and resuspended in assay buffer (1×HBSS; 20 mM HEPES, 0.1% BSA, 2 mM IBMX) and cellular density determined. They were then diluted to 400000 cells/ml and 25 μl-aliquots dispensed into the wells of 96-well plates. For measurement, 25 μl of test compound in assay buffer was added to the wells, followed by incubation for 30 minutes at room temperature.

[2] = target: T2, human GIP receptor (hGIP R) (Homo sapiens, UniProt P48546); experiment: cAMP response of HEK-293 cells stably expressing human GIP receptor (HTRF)
T2 construct: expressed in transfected cells
T2 sequence (P48546 22-466): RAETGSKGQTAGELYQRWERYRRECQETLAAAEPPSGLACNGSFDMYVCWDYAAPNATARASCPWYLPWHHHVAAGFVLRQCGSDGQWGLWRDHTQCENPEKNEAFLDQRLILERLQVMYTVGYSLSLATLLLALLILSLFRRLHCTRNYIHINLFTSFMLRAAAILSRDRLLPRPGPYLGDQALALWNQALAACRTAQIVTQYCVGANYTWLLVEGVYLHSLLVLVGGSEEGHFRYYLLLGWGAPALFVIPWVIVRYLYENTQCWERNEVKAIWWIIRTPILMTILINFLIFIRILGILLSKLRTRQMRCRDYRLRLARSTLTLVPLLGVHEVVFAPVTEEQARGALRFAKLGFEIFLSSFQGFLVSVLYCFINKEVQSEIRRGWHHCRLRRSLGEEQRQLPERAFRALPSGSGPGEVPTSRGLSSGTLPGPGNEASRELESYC
Description: as §1

[3] = target: T3, human glucagon receptor (hGLUC R) (Homo sapiens, UniProt P47871); experiment: cAMP response of HEK-293 cells stably expressing human glucagon receptor (HTRF)
T3 construct: expressed in transfected cells
Description: as §1

T3 sequence (P47871 26-477): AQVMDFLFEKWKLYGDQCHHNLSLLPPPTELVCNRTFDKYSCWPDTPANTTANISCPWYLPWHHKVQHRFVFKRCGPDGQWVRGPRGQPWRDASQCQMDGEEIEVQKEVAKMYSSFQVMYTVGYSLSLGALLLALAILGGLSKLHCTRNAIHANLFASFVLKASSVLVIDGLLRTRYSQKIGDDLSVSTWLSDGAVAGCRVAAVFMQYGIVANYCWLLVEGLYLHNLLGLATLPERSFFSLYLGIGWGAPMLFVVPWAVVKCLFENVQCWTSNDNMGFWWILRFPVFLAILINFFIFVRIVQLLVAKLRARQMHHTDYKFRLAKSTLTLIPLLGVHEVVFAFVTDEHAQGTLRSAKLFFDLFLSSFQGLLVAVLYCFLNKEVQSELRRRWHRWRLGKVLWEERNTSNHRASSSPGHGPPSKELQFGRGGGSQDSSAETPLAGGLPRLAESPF
T1 sequence (P43220 24-463): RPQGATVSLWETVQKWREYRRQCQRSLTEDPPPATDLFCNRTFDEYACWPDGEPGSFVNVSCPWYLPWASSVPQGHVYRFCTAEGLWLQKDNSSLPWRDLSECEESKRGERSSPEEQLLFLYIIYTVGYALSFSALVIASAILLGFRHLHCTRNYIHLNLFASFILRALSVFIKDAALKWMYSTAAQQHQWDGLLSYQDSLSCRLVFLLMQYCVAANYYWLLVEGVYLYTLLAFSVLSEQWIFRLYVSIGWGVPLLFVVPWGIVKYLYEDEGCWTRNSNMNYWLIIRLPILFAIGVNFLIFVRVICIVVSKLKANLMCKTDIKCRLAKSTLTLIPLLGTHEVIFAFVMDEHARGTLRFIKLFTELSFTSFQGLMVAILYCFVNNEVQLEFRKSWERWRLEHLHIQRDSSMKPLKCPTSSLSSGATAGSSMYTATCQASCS

Row | SMILES | EC50 [1] [nM] | EC50 [2] [nM] | EC50 [3] [nM]
1 | CCCCCCCCCCCCCCCC(=O)N[C@@H](CCC(=O)NCCCC[C@H](NC(=O)[C@H](CCC(N)=O)NC(=O)[C@@H](NC(=O)[C@H](CO)NC(=O)[C@H](CC(C)C)NC(=O)[C@H](CC(=O)O)NC(=O)[C@H](CO)NC(=O)[C@@H](NC(=O)[C@H](Cc1ccccc1)NC(=O)[C@@H](NC(=O)CNC(=O)[C@H](CCC(N)=O)NC(=O)C(C)(C)NC(=O)[C@@H](N)Cc1ccc(O)cc1)[C@@H](C)O)[C@@H](C)O)[C@@H](C)CC)C(=O)N[C@@H](CC(=O)O)C(=O)N[C@@H](CO)C(=O)N[C@@H](CCC(=O)O)C(=O)N[C@@H](C)C(=O)N[C@@H](C)C(=O)N[C@@H](CCC(N)=O)C(=O)N[C@@H](CC(=O)O)C(=O)N[C@@H](Cc1ccccc1)C(=O)N[C@H](C(=O)N[C@@H](CCC(=O)O)C(=O)N[C@@H](Cc1c[nH]c2ccccc12)C(=O)N[C@@H](CC(C)C)C(=O)N[C@@H](CCCCN)C(=O)N[C@@H](C)C(=O)NCC(=O)NCC(=O)N1CCC[C@H]1C(=O)N[C@@H](CO)C(=O)N[C@@H](CO)C(=O)NCC(=O)N[C@@H](C)C(=O)N1CCC[C@H]1C(=O)N1CCC[C@H]1C(=O)N1CCC[C@H]1C(=O)N[C@@H](CO)C(N)=O)[C@@H](C)CC)C(=O)O [SEQ ID NO: 48, Y-Aib-Q-G-T-F-T-S-D-L-S-I-Q-K(yE-x53)-DSEAAQDFIEWLKAGGPSSGAPPPS-NH2] (H-Y[Aib]QGTFTSDLSIQK([γGlu-Palmitoyl])DSEAAQDFIEWLKAGGPSSGAPPPS-NH2) | 0.0101 | 0.0158 | 0.478
2 | CCCCCCCCCCCCCCCC(=O)N[C@@H](CCC(=O)NCCCC[C@H](NC(=O)[C@H](CCC(N)=O)NC(=O)[C@@H](NC(=O)[C@H](CO)NC(=O)[C@H](CC(C)C)NC(=O)[C@H](CC(=O)O)NC(=O)[C@H](CO)NC(=O)[C@@H](NC(=O)[C@H](Cc1ccccc1)NC(=O)[C@@H](NC(=O)CNC(=O)[C@H](CCC(=O)O)NC(=O)C(C)(C)NC(=O)[C@@H](N)Cc1ccc(O)cc1)[C@@H](C)O)[C@@H](C)O)[C@@H](C)CC)C(=O)N[C@@H](CCC(=O)O)C(=O)N[C@@H](CCC(=O)O)C(=O)N[C@@H](CCC(N)=O)C(=O)N[C@@H](C)C(=O)N[C@@H](C)C(=O)N[C@@H](Cc1c[nH]cn1)C(=O)N[C@@H](CCC(=O)O)C(=O)N[C@@H](Cc1ccccc1)C(=O)N[C@H](C(=O)N[C@@H](CCC(=O)O)C(=O)N[C@@H](Cc1c[nH]c2ccccc12)C(=O)N[C@@H](CC(C)C)C(=O)N[C@@H](CCCCN)C(=O)N[C@@H](CCCNC(=N)N)C(=O)NC(C)(C)C(=O)NCC(=O)N1CCC[C@H]1C(=O)N[C@@H](CO)C(=O)N[C@@H](CO)C(=O)NCC(=O)N[C@@H](C)C(=O)N1CCC[C@H]1C(=O)N1CCC[C@H]1C(=O)N1CCC[C@H]1C(=O)N[C@@H](CO)C(N)=O)[C@@H](C)CC)C(=O)O [SEQ ID NO: 38, Y-Aib-E-G-T-F-T-S-D-L-S-I-Q-K(yE-x53)-E-E-Q-A-A-H-E-F-I-E-W-L-K-R-Aib-G-P-S-S-G-A-P-P-P-S-NH2] | 0.009 | 0.0074 | 22.5
3 | CCCCCCCCCCCCCCCCCC(=O)N[C@@H](CCC(=O)NCCCC[C@H](NC(=O)[C@H](CCC(N)=O)NC(=O)[C@@H](NC(=O)[C@H](CO)NC(=O)[C@H](CC(C)C)NC(=O)[C@H](CC(=O)O)NC(=O)[C@H](CO)NC(=O)[C@@H](NC(=O)[C@H](Cc1ccccc1)NC(=O)[C@@H](NC(=O)CNC(=O)[C@H](Cc1c[nH]cn1)NC(=O)C(C)(C)NC(=O)[C@@H](N)Cc1ccc(O)cc1)[C@@H](C)O)[C@@H](C)O)[C@@H](C)CC)C(=O)N[C@@H](CCC(=O)O)C(=O)N[C@@H](CCCCN)C(=O)N[C@@H](CCCNC(=N)N)C(=O)N[C@@H](C)C(=O)N[C@@H](C)C(=O)N[C@@H](Cc1ccccc1)C(=O)N[C@@H](CCC(=O)O)C(=O)N[C@@H](Cc1ccccc1)C(=O)N[C@H](C(=O)N[C@@H](CCC(=O)O)C(=O)N[C@@H](Cc1c[nH]c2ccccc12)C(=O)N[C@@H](CC(C)C)C(=O)N[C@@H](CCCCN)C(=O)N[C@@H](CC(N)=O)C(=O)N[C@H](C(=O)NCC(=O)N1CCC[C@H]1C(=O)N[C@@H](CO)C(=O)N[C@@H](CO)C(=O)NCC(=O)N[C@@H](C)C(=O)N1CCC[C@H]1C(=O)N1CCC[C@H]1C(=O)N1CCC[C@H]1C(=O)N[C@@H](CO)C(N)=O)[C@@H](C)O)[C@@H](C)CC)C(=O)O [SEQ ID NO: 32, Y-Aib-H-G-T-F-T-S-D-L-S-I-Q-K(yE-x70)-EKRAAFEFIEWLKNTGPSSGAPPPS-NH2] (H-Y[Aib]HGTFTSDLSIQK([γGlu-Stearoyl])EKRAAFEFIEWLKNTGPSSGAPPPS-NH2) | 0.0417 | 0.0335 | 0.0192
4 | CCCCCCCCCCCCCCCC(=O)N[C@@H](CCC(=O)NCCCC[C@H](NC(=O)[C@H](CCC(N)=O)NC(=O)[C@@H](NC(=O)[C@H](CO)NC(=O)[C@H](CC(C)C)NC(=O)[C@H](CC(=O)O)NC(=O)[C@H](CO)NC(=O)[C@@H](NC(=O)[C@H](Cc1ccccc1)NC(=O)[C@@H](NC(=O)CNC(=O)[C@H](CCC(N)=O)NC(=O)C(C)(C)NC(=O)[C@@H](N)Cc1ccc(O)cc1)[C@@H](C)O)[C@@H](C)O)[C@@H](C)CC)C(=O)N[C@@H](CC(=O)O)C(=O)N[C@@H](CO)C(=O)N[C@H](C(=O)N[C@@H](C)C(=O)N[C@@H](C)C(=O)N[C@@H](CCC(N)=O)C(=O)N[C@@H](CC(=O)O)C(=O)N[C@@H](Cc1ccccc1)C(=O)N[C@H](C(=O)N[C@@H](CCC(=O)O)C(=O)N[C@@H](Cc1c[nH]c2ccccc12)C(=O)N[C@@H](CC(C)C)C(=O)N[C@@H](CCCCN)C(=O)N[C@@H](C)C(=O)NCC(=O)NCC(=O)N1CCC[C@H]1C(=O)N[C@@H](CO)C(=O)N[C@@H](CO)C(=O)NCC(=O)N[C@@H](C)C(=O)N1CCC[C@H]1C(=O)N1CCC[C@H]1C(=O)N1CCC[C@H]1C(=O)N[C@@H](CO)C(N)=O)[C@@H](C)CC)[C@@H](C)CC)C(=O)O [SEQ ID NO: 49, Y-Aib-Q-G-T-F-T-S-D-L-S-I-Q-K(yE-x53)-DSIAAQDFIEWLKAGGPSSGAPPPS-NH2] (H-Y[Aib]QGTFTSDLSIQK([γGlu-Palmitoyl])DSIAAQDFIEWLKAGGPSSGAPPPS-NH2) | 0.0172 | 0.0456 | 0.195
5 | CCCCCCCCCCCCCCCC(=O)N[C@@H](CCC(=O)NCCCC[C@H](NC(=O)[C@H](CCC(N)=O)NC(=O)[C@@H](NC(=O)[C@H](CO)NC(=O)[C@H](CC(C)C)NC(=O)[C@H](CC(=O)O)NC(=O)[C@H](CO)NC(=O)[C@@H](NC(=O)[C@H](Cc1ccccc1)NC(=O)[C@@H](NC(=O)CNC(=O)[C@H](CCC(N)=O)NC(=O)C(C)(C)NC(=O)[C@@H](N)Cc1ccc(O)cc1)[C@@H](C)O)[C@@H](C)O)[C@@H](C)CC)C(=O)N[C@@H](CC(=O)O)C(=O)N[C@@H](CO)C(=O)N[C@@H](CCCNC(=N)N)C(=O)N[C@@H](C)C(=O)N[C@@H](C)C(=O)N[C@@H](CCC(N)=O)C(=O)N[C@@H](CC(=O)O)C(=O)N[C@@H](Cc1ccccc1)C(=O)N[C@H](C(=O)N[C@@H](CCC(=O)O)C(=O)N[C@@H](Cc1c[nH]c2ccccc12)C(=O)N[C@@H](CC(C)C)C(=O)N[C@@H](CCCCN)C(=O)N[C@@H](CCCCN)C(=O)NCC(=O)NCC(=O)N1CCC[C@H]1C(=O)N[C@@H](CO)C(=O)N[C@@H](CO)C(=O)NCC(=O)N[C@@H](C)C(=O)N1CCC[C@H]1C(=O)N1CCC[C@H]1C(=O)N1CCC[C@H]1C(=O)N[C@@H](CO)C(N)=O)[C@@H](C)CC)C(=O)O [SEQ ID NO: 43, Y-Aib-Q-G-T-F-T-S-D-L-S-I-Q-K(yE-x53)-DSRAAQDFIEWLKKGGPSSGAPPPS-NH2] (H-Y[Aib]QGTFTSDLSIQK([γGlu-Palmitoyl])DSRAAQDFIEWLKKGGPSSGAPPPS-NH2) | 0.007 | 0.0482 | 0.114
